From patent publication US20190256499A1, “SUBSTITUTED QUINOXALINE DERIVATIVES AS INHIBITORS OF PFKFB” (priority 2016, published 2019)
Converted amounts (≈) assume the structure as drawn. Read-outs that look alike come from different tables or passages of the source.

How the values were obtained:
[1] = Microsomal stability (intrinsic clearance), mouse liver microsomes; format: in vitro ADME; set-up: microsomal CLint: dose or concentration left out as unconfirmed; settings: for microsomal CLint: mouse, liver microsomes, pH 7.4, mouse liver microsomes
Excerpt: (§1) A microsomal stability assay is used to measure in vitro clearance (Clint). The assay involves measuring the rate of disappearance of a compound due to its intrinsic attitude to be metabolized (“intrinsic” meaning that the disappearance is not affected by other properties like permeability, binding etc. that play a role when quantifying in vivo clearance). The microsomal stability (intrinsic clearance, Clint) and thus metabolic stability is generally given as μl/min/mg protein. It can be visualized as the volume of solution that 1 mg of microsomes is able to clear of the compound in one minute.
(§2) A Tecan Genesis workstation (RSP 150/8) was used for to perform the microsomal incubations. Analysis was carried out using a Waters ACQUITY UPLC system coupled to an ABSciex API3000 mass spectrometer. Data analysis was performed using Assay Explorer (Symyx).
(§3) Mobile phases: A=0.1% formic acid in water; B=acetonitrile
(§4) Flow rate: 0.750 mL/min; Detection: ESI, MRM; Injection: 10 μL; Column temperature: 50° C.
(§5) Potassium phosphate buffer: 0.05 M potassium phosphate buffer pH 7.4 containing 1 mM MgCl2 NADPH (nicotinamide adenine dinucleotide phosphate): 22.5 mg NADPH-Na4 in 1.8 ml potassium phosphate buffer Acetonitrile: 50 Vol % acetonitrile (1 volume acetonitrile, 1 volume water) DMSO: 20 Vol % DMSO in water Stock solution of 20 mg/ml human or mouse liver microsomes (protein)/ml in phosphate buffer Stock solution of 10 mM compound in 100% DMSO

[2] = Microsomal stability (intrinsic clearance), human liver microsomes; format: in vitro ADME; set-up: microsomal CLint: dose or concentration left out as unconfirmed; settings: for microsomal CLint: human, liver microsomes, pH 7.4, human liver microsomes
Excerpt: as §1, §2, §3, §4, §5

[3] = target: T1, Human recombinant His-tagged PFKFB3 (Homo sapiens, UniProt Q16875); assay: PFKFB3 IC50 determination assay (modified ADP-Glo in vitro kinase assay); format: biochemical; settings: ATP 20 μM, fructose-6-phosphate 2 μM, 2 h, rt
T1 construct: His; made in house
Experimental: In vitro kinase assay used to determine IC50 values for tested inhibitors is based on a modified ADP-Glo™ system (Promega) and consists of two parts:
1. Kinase reaction—performed in optimized conditions. At this step PFKFB3 phosphorylates its substrate fructose-6-phosphate using ATP as a source of phosphate to produce fructose-2,6-bisphosphate and ADP. Reaction is performed at Km values for ATP and substrate using optimized buffer composition and time of the reaction. Human recombinant His-tagged PFKFB3 (PFKFB3 BATCH II SEC) with confirmed activity is produced and purified in-house. 2. Detection of ADP as a product of the reaction using ADP-Glo™ system. This part is conducted by using the commercially available kit ADP-Glo™ Kinase Assay (Promega, cat. No# V9103) according to manufacturer's instruction, modified by 5× dilutions of assay reagents (both ADP-Glo™ Reagent and Kinase Detection Solution). Reproducibility and reliability of this modification is confirmed in an optimization process.
Test compounds are dissolved in DMSO and then transferred to the V-bottom 96-well plate. For IC50 determination ten 10× serial dilutions starting from 100 μM are prepared.
Two mixes are prepared on ice: Mix 1—containing appropriate kinase amount in 2× reaction buffer (100 mM TRIS pH 8.0) and Mix 2—containing 2.31× concentrated substrate (Fructose-6-phosphate) and ATP in MilliQ water. 15 μL per well of Mix 1 is transferred to assay wells of 96-well white plate. Next, 2 μl of 15× concentrated test compound in DMSO is added to Mix 1 for 20 min pre-incubation, followed by addition of Mix 2 (13 μl/well). Total reaction volume is 30 μL per well. Samples are tested in duplicates. Final concentration of DMSO in the reaction is 6.7%. Conditions needed for performing PFKFB3 (PFKFB3 BATCH II SEC) in vitro kinase assay are given below:
This protocol is based on Technical Bulletin, ADP-Glo™ Kinase Assay (Promega) and is adapted to 96-well plate containing 30 μL reaction mixture:
30 μL of 5× diluted ADP-Glo™ Reagent is added to each well of 96-well plate containing 30 μL of reaction mixture. The plate is incubated for 90 minutes on a shaker at rt. 60 μL of 5× diluted Kinase Detection Solution is added to each well of 96-well plate containing 60 μL of the solution (ratio of kinase reaction volume to ADP-Glo™ Reagent volume to Kinase Detection Solution volume is maintained at 1:1:2). Plate is incubated for 40 minutes on a shaker at rt, protected from light. Luminescence is measured in the plate reader Synergy 2 (BioTek).
Luminescent readouts for compounds tested in 10 concentrations (routinely from 100 μM to […], […] serial dilutions) in duplicates, as well as for positive control, are first normalized to no-substrate negative control by its subtraction. In the next step, % of normalized positive control is calculated for each data point and plotted against test compound concentration:
% of control—percent of positive control normalized to no-substrate negative control Lumcpd—luminescence of test compound Lumneg—luminescence of no-substrate negative control Lumpos—luminescence of positive control
IC50 parameter is determined by the GraphPad Prism 5.0 software [log(inhibitor) vs. response—Variable slope (four parameters)].

[4] = Kinetic solubility; format: physicochemical; settings: phosphate buffer 20 mM pH 7.4, 2% DMSO, room temperature; for solubility kinetic at 120 min: phosphate buffer, pH 7.4, aqueous buffer, kinetic from dmso stock
Experimental: Kinetic solubility of compounds of the present invention were tested according the following procedure.
(a) Buffer Solution Phosphate Buffer 20 mM pH 7.4 is prepared using Sorensen Phosphate Buffer 0.2 M pH 7.4 (EMS) in a 1000 mL volumetric flask (b) 2% DMSO in Phosphate Buffer 20 mM pH 7.4 is prepared by using 1 mL Dimethylsulfoxide (Merck) and 49 ml Sorensen Phosphate Buffer 20 mM pH 7.4 (c) Acetonitrile/Methanole/Eluent A (1:1:2; v/v/v) is prepared by using 50 mL Acetonitrile (Merck), 50 mL Methanol (Merck) and 100 mL Eluent A (d) Eluent A is prepared by using 1 mL Formic Acid (Merck) and 999 mL Ultrapure water (e) Eluent B is prepared by using 1 mL Formic Acid (Merck) and 999 mL Acetonitrile (Merck) (f) Filtration plate: Millipore MultiScreen HTS HV (0.45 μm) 96 Well (Millipore)
98 μL buffer solution (a) is added into a well of a 96 well filtration plate (f). Then 2 μL of 10 mM test compound solution in DMSO (Remp tube) is added. The filtration plate is incubated at room temperature for 120 minutes while agitating at 250 rpm and centrifuged with the PP-Plate (g) as receiver plate below (2500 rpm, 3 min). The 50 μL of filtrate is taken from the receiver plate and mixed with 50 μL of 2% DMSO in buffer pH 7.4 solution (b) (dilution factor=2) in a HPLC Vial (i)+(j).
Standard is prepared by diluting 2 μL of the same 10 mM test compound solution (Remp tube) diluted with 198 μL Acetonitrile/Methanole/Eluent A (1:1:2; v/v/v) (c) to prepare a 100 μM standard solution in a HPLC Vial (i)+(j).
Column temperature: 37° C. Autosampler: room temperature (approx. 25° C.) Gradient programme: […]
Injection volume: 10 μL Wavelength: Suitable wavelength (maximum sensitivity) selected out of wavelength range of 190-400 nm using a DAD detector.
L [μg/mL]=(area sample*concentration standard*dilution factor sample)/(area standard*dilution factor standard)
S [mol/L]=[…] Calculation: […]

[5] = PFKFB IC50, human recombinant PFKFB3 25 nM
[6] = human recombinant PFKFB3 25 nM, read-out: PFKFB IC50

T1 sequence (Q16875 whole entry): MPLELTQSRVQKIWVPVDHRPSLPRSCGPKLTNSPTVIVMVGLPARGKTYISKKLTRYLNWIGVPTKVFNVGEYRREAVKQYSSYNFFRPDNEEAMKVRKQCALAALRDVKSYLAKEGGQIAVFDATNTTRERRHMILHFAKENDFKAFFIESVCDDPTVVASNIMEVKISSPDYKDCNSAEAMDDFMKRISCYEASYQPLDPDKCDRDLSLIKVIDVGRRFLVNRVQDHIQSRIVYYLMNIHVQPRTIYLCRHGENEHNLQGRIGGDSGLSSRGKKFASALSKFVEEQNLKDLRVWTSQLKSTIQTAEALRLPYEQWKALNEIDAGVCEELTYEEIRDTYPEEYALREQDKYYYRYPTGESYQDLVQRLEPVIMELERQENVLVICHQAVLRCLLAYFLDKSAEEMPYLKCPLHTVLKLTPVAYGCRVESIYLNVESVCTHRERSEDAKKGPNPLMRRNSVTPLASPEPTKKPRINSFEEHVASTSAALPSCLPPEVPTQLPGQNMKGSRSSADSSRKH

IC50 [3, 5]	CLint Mouse ([1]; mouse liver microsomes)	CLint Human ([2]; human liver microsomes)	Kinetic solubility ([4]; 120 minutes)	Structure (SMILES)	microsomal CLint [1]	microsomal CLint [2]	IC50 [3, 6]	solubility kinetic at 120 min [4]
25 nM	–	–	–	COc1ccc(C(Nc2cc(-c3ccc4ccn(C)c4c3)c3nccnc3c2)c2cnnn2C)cn1 (racemic) [Comparative Example 1, [(6-Methoxy-pyridin-3-yl)-(3-methyl-3H-[1,2,3]triazol-4-yl)-methyl]-[8-(1-methyl-1H-indol-6-yl)-quinoxalin-6-yl]-amine, reference compound]	188 µL/min/mg	163 µL/min/mg	–	–
–	92 μl/min/mg prot	61 μl/min/mg prot	64 µM	Cn1ccc2ccc(-c3cc(NC(c4cccnc4)c4ccc(=O)[nH]n4)cc4nccnc34)cc21 (single isomer, unassigned) [Example 3]	–	–	180 nM	–
–	–	–	–	COc1ccc([C@H](Nc2cc(-c3ccc4ccn(C)c4c3)c3nccnc3c2)c2cccnc2)nn1 (single isomer, unassigned) [Example 6]	134 µL/min/mg	174 µL/min/mg	900 nM	18 µM (≈ 8.52 µg/mL)
–	–	–	–	Cn1cc([C@@H](Nc2cc(-c3ccc4ccn(C)c4c3)c3nccnc3c2)c2cnnn2C)cn1 (single isomer, unassigned) [Example 9]	146 µL/min/mg	52 µL/min/mg	87 nM	110 µM (≈ 49.4 µg/mL)
–	–	–	–	Cn1cc([C@@H](Nc2cc(-c3ccc4ccn(C)c4c3)c3nccnc3c2)c2cncn2C)cn1 (single isomer, unassigned) [Example 12]	–	–	44 nM	–
–	–	–	–	Cn1cc([C@H](Nc2cc(-c3ccc4ccn(C)c4c3)c3nccnc3c2)c2nccn2C)cn1 (single isomer, unassigned) [Example 14]	67 µL/min/mg	57 µL/min/mg	640 nM	36 µM (≈ 16.1 µg/mL)
–	–	–	–	Cn1cc([C@@H](Nc2cc(-c3ccc4ccn(C)c4c3)c3nccnc3c2)c2nccn2C)cn1 (single isomer, unassigned) [Example 15]	88 µL/min/mg	76 µL/min/mg	560 nM	48 µM (≈ 21.5 µg/mL)
–	–	–	–	Cn1cc([C@@H](Nc2cc(-c3ccc4ccn(C)c4c3)c3nccnc3c2)c2cccnc2)cn1 (single isomer, unassigned) [Example 17]	95 µL/min/mg	172 µL/min/mg	120 nM	42 µM (≈ 18.7 µg/mL)
–	–	–	–	Cn1cc([C@H](Nc2cc(-c3ccc4ccn(C)c4c3)c3nccnc3c2)c2cccnc2)cn1 (single isomer, unassigned) [Example 18]	148 µL/min/mg	142 µL/min/mg	6.5 nM	39 µM (≈ 17.4 µg/mL)
–	–	–	–	CC(C)[C@@H](Nc1cc(-c2ccc3ccn(C)c3c2)c2nccnc2c1)c1cccnc1 (single isomer, unassigned) [Example 20]	> 500 µL/min/mg	> 500 µL/min/mg	33 nM	6 µM (≈ 2.45 µg/mL)
23 nM	–	–	–	CC(C)[C@H](Nc1cc(-c2ccc3ccn(C)c3c2)c2nccnc2c1)c1cccnc1 (single isomer, unassigned) [Example 21]	488 µL/min/mg	366 µL/min/mg	–	7 µM (≈ 2.85 µg/mL)
–	–	–	–	Cn1cc([C@@H](Nc2cc(-c3cnc4ccn(C)c4c3)c3nccnc3c2)c2cccnc2)cn1 (single isomer, unassigned) [Example 26]	58 µL/min/mg	67 µL/min/mg	1100 nM	192 µM (≈ 85.7 µg/mL)
–	–	–	–	Cn1cc([C@H](Nc2cc(-c3cnc4ccn(C)c4c3)c3nccnc3c2)c2cccnc2)cn1 (single isomer, unassigned) [Example 27]	64 µL/min/mg	404 µL/min/mg	6300 nM	161 µM (≈ 71.9 µg/mL)
–	–	–	–	Cn1ccc([C@@H](Nc2cc(-c3ccc4ccn(C)c4c3)c3nccnc3c2)c2cnnn2C)n1 (single isomer, unassigned) [Example 29]	69 µL/min/mg	51 µL/min/mg	22 nM	108 µM (≈ 48.5 µg/mL)
–	–	–	–	Cn1ccc([C@H](Nc2cc(-c3ccc4ccn(C)c4c3)c3nccnc3c2)c2cnnn2C)n1 (single isomer, unassigned) [Example 30]	216 µL/min/mg	132 µL/min/mg	190 nM	96 µM (≈ 43.2 µg/mL)
–	–	–	–	COc1ccc([C@H](Nc2cc(-c3ccc4ccn(C)c4c3)c3nccnc3c2)c2cnnn2C)cn1 [Comparative Example 2, N—[(S)-(6-methoxypyridin-3-yl)(1-methyl-1H-1,2,3-triazol-5-yl)methyl]-8-(1-methyl-1H-indol-6-yl)quinoxalin-6-amine, reference compound]	134 µL/min/mg	113 µL/min/mg	3.5 nM	22 µM (≈ 10.5 µg/mL)
